# Where “and” joins values, the source holds several entries; their conditions need not be identical. Equal entries are not always repeated.
# Key:
# [1] = Hypersensitivity reactions in Phase 3 clinical trials of dolutegravir; assay type: in vivo, human; settings: subjects receiving dolutegravir in Phase 3 clinical trials
# Excerpt: Discontinue the combination immediately if signs or symptoms of hypersensitivity reactions develop (including, but not limited to, severe rash or rash accompanied by fever, general malaise, fatigue, muscle or joint aches, blisters or peeling of the skin, oral blisters or lesions, conjunctivitis, facial edema, hepatitis, eosinophilia, angioedema, difficulty breathing). Clinical status, including liver aminotransferases, should be monitored and appropriate therapy initiated.
# [2] = Dolutegravir embryo-fetal development study in pregnant rabbits; assay type: in vivo, rabbit; settings: oral up to 1,000 mg/kg daily, gestation Days 6 to 18
# [3] = Dolutegravir rat pre/post-natal development study; assay type: in vivo; settings: relative to human exposure at the RHD
# Excerpt: In the rat pre/post-natal development study, decreased body weight of the developing offspring was observed during lactation at a maternally toxic dose (approximately 32 times human exposure at the RHD).
# [4] = Excretion into milk of lactating rats; assay type: in vivo; settings: female, rat, milk / maternal plasma; single oral dose of 50 mg/kg on lactation Day 10; 8 hours postdose; read-out: Milk concentration relative to maternal plasma concentration
# [5] = Plasma protein binding in vitro; assay type: in vitro ADME; settings: human, human plasma proteins, read-out: % Bound to human plasma proteins (converted)
# [6] = Multiple-dose pharmacokinetic properties (Table 7); assay type: in vivo, human; settings: population PK, ART treatment-naive adults, 50 mg dolutegravir once daily
# CYP2D6 = CYP2D6 (Homo sapiens, UniProt P10635); assay: In vitro inhibition of CYP2D6; assay type: in vitro ADME; settings: did not inhibit
# Sequence of CYP2D6 (P10635 whole entry): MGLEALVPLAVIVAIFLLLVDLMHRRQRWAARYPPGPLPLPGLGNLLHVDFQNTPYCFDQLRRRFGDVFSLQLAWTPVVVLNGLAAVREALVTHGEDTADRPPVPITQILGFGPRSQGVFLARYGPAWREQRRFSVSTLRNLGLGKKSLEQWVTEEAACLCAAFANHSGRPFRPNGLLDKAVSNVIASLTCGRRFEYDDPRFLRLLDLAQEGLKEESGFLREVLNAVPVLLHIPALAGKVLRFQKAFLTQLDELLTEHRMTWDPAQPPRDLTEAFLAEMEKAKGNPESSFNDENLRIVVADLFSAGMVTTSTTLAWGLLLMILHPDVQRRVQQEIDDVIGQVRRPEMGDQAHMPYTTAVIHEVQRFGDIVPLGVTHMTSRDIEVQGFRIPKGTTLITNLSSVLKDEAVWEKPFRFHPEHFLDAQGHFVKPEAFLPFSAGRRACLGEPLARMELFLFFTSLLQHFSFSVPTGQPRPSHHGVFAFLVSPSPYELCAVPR
# CYP3A = assay: In vitro inhibition of CYP3A; assay type: in vitro ADME; settings: human, did not inhibit
# UGT2B7 = UGT2B7 (Homo sapiens, UniProt P16662); assay: In vitro inhibition of UGT2B7; assay type: in vitro ADME; settings: did not inhibit
# Sequence of UGT2B7 (P16662 24-529): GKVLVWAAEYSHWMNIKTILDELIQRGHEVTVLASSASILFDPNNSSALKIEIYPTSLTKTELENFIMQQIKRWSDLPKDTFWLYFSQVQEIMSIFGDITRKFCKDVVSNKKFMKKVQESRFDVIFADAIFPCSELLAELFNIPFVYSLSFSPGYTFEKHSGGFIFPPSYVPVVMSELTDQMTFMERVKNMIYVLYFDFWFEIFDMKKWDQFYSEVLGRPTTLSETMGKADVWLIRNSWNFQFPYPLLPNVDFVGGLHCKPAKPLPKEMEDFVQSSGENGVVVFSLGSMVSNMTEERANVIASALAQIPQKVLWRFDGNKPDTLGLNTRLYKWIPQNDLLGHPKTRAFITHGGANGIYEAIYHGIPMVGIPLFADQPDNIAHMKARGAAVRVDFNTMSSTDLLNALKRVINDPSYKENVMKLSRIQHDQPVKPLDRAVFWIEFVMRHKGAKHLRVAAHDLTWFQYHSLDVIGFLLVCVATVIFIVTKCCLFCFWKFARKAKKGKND
# BCRP [7] = biological target: T1, BCRP (Homo sapiens, UniProt Q9UNQ0); assay: In vitro inhibition of BCRP; assay type: in vitro ADME; settings: did not inhibit
# T1 sequence (Q9UNQ0 1-655): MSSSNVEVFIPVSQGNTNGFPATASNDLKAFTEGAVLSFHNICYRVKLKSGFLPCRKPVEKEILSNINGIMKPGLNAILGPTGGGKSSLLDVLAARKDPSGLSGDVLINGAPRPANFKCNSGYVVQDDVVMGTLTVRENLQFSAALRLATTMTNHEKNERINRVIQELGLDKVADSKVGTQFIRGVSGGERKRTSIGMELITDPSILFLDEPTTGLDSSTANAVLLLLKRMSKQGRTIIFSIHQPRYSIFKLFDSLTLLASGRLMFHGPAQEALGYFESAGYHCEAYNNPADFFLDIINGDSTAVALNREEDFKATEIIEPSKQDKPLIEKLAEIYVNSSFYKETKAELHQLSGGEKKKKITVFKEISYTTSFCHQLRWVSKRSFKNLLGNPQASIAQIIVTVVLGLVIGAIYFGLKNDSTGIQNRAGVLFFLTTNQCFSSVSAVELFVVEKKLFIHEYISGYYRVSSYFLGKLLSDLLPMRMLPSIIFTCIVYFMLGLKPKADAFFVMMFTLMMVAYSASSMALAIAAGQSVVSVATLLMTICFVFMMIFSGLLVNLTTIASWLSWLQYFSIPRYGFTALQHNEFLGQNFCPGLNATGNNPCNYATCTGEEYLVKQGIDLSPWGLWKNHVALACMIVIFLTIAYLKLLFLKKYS
# OATP1B3 = OATP1B3 (Homo sapiens, UniProt Q9NPD5); assay: In vitro inhibition of OATP1B3; assay type: in vitro ADME; settings: did not inhibit
# Sequence of OATP1B3 (Q9NPD5 whole entry): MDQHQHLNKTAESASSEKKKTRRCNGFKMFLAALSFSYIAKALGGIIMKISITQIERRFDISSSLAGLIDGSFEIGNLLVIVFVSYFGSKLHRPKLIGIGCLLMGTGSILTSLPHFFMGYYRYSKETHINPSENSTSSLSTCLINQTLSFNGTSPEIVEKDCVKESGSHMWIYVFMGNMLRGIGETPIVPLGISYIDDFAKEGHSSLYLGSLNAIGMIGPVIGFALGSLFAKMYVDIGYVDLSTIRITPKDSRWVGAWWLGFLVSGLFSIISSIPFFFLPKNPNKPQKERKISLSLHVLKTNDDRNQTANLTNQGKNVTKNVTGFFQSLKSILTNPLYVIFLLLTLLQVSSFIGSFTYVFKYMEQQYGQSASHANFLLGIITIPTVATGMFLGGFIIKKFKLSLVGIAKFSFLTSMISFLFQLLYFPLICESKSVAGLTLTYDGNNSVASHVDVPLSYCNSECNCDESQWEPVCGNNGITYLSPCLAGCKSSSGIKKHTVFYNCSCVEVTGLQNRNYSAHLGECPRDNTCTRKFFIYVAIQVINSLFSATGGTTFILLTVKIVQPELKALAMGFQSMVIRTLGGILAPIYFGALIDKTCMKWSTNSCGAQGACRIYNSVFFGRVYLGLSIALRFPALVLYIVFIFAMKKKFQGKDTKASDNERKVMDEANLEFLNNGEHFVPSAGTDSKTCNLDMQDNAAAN
# [8] = biological target: multidrug resistance protein (MRP)2 (Homo sapiens, UniProt Q92887); assay: In vitro inhibition of MRP2; assay type: in vitro ADME; settings: did not inhibit
# Sequence of multidrug resistance protein (MRP)2 (Q92887 whole entry): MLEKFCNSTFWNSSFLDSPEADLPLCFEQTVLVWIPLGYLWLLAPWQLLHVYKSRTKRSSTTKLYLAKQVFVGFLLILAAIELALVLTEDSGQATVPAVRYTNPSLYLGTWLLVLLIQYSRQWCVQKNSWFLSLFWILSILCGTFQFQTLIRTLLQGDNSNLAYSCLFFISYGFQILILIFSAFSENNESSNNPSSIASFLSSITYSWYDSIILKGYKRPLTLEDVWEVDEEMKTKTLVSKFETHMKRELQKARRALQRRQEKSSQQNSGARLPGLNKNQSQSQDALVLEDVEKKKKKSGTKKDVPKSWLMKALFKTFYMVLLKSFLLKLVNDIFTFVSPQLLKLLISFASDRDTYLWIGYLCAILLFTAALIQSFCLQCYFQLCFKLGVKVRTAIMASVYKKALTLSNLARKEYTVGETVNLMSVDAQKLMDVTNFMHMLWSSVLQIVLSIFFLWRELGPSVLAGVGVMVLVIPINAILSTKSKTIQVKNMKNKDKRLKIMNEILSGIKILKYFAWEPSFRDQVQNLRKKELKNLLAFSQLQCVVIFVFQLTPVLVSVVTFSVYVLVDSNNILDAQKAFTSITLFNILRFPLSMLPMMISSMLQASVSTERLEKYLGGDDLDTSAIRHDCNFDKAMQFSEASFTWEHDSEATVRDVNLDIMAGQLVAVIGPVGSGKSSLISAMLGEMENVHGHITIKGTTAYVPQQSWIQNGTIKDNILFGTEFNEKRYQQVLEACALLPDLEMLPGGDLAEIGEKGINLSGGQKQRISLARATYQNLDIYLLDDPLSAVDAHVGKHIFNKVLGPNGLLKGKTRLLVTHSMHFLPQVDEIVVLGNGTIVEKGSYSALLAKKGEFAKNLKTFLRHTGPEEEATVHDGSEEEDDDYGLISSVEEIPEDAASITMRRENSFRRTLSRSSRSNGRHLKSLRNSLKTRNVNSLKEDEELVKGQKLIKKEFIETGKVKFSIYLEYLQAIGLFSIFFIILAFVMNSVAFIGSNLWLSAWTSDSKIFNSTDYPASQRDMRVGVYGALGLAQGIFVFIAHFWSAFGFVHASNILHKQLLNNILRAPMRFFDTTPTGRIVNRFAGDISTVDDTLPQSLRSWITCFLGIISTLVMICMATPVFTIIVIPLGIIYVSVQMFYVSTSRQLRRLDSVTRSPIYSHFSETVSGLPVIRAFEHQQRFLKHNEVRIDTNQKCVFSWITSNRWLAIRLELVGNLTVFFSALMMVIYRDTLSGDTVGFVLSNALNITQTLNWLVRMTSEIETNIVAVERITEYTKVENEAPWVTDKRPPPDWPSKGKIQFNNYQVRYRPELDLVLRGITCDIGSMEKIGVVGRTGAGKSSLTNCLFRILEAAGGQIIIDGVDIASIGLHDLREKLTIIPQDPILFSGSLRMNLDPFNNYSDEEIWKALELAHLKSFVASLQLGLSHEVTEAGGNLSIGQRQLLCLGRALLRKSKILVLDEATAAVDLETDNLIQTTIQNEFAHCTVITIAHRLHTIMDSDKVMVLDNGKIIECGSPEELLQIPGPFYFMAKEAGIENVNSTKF
# MRP4 = MRP4 (Homo sapiens, UniProt O15439); assay: In vitro inhibition of MRP4; assay type: in vitro ADME; settings: did not inhibit
# CYP1A2 = assay: In vitro induction of CYP1A2; assay type: in vitro ADME
# CYP2B6 = assay: In vitro induction of CYP2B6; assay type: in vitro ADME
# [9] = biological target: organic anion transporter (OAT)1 (Homo sapiens, UniProt Q4U2R8); assay: In vitro inhibition of OAT1; assay type: in vitro ADME
# Sequence of organic anion transporter (OAT)1 (Q4U2R8 whole entry): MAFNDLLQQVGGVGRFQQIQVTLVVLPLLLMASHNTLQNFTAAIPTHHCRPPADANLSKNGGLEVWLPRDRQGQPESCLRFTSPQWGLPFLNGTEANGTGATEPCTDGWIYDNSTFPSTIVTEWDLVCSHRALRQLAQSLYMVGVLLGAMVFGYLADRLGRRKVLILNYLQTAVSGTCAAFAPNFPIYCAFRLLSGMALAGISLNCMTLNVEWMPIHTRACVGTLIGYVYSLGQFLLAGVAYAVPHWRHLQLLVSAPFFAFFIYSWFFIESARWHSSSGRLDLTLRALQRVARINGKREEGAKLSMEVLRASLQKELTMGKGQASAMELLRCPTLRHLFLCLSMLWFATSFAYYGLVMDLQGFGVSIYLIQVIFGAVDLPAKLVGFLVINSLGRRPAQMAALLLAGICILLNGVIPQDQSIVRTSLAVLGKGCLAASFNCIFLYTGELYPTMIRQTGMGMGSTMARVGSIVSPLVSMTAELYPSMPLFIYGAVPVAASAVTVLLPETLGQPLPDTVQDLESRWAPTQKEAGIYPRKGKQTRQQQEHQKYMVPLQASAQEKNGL
# BCRP [10] = biological target: T1, BCRP; assay: In vitro substrate assessment, BCRP; assay type: in vitro ADME
# P-gp = P-gp (Homo sapiens, UniProt P08183); assay: In vitro substrate assessment, P-gp; assay type: in vitro ADME
# OATP1B1 = OATP1B1 (Homo sapiens, UniProt Q9Y6L6); assay: In vitro substrate assessment, OATP1B1; assay type: in vitro ADME
# Sequence of OATP1B1 (Q9Y6L6 whole entry): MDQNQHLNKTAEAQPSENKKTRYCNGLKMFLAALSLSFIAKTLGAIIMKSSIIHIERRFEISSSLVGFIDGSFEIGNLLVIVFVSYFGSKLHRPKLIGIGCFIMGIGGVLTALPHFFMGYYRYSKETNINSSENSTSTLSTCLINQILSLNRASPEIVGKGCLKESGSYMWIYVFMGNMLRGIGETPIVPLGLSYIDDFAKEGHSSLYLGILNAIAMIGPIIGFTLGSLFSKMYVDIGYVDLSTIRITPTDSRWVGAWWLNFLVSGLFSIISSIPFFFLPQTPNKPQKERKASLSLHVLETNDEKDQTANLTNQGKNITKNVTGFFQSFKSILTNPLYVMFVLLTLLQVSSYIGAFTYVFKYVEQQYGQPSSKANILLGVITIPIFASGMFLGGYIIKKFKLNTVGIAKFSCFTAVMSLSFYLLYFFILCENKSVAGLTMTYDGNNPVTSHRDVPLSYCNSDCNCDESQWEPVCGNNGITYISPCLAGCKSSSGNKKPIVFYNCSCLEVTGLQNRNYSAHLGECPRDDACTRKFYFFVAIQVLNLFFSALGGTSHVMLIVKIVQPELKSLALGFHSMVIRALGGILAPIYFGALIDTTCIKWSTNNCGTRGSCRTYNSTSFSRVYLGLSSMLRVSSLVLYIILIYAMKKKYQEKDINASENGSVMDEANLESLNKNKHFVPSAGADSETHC
# [11] = test system: laboratory strains of wild-type HIV-1; assay: Antiviral activity against laboratory strains in PBMCs and MT-4 cells; assay type: cell-based; settings: Human immunodeficiency virus 1, MT4
# [12] = test system: 13 clinically diverse clade B isolates; assay: Viral integrase susceptibility assay using integrase coding region from clinical isolates; assay type: cell-based, HIV-1; settings: Human immunodeficiency virus 1; 13 clade B isolates
# HIV = assay: Antiviral activity in combination with other antiviral agents; assay type: cell-based
# [13] = Carcinogenicity studies in rats; settings: two-year study, doses up to 50 mg/kg, highest dose tested
compound,measurement,setting,value
"C[C@@H]1CCO[C@H]2Cn3cc(C(=O)NCc4ccc(F)cc4F)c(=O)c(O)c3C(=O)N12 [Dolutegravir, dolutegravir]","Hypersensitivity reactions, % of subjects",[1],< 1%
same,Effects on embryo-fetal development,[2],No adverse effects
same,Exposure multiple of maternally toxic dose with decreased body weight of developing offspring during lactation,[3],approximately 32 times
same,Kp at 8 h,[4],≤ 1.3
same,fraction unbound,[5],~0.01
same,"AUCtau, Mean (CV %)",[6],53.6 (27%) mcg/h/mL
same,"Cmax, Mean (CV %)",[6],3.67 (20%) mcg/mL
same,"Ctrough, Mean (CV %)",[6],1.11 (46%) mcg/mL
same,IC50,CYP2D6,> 50 µM
same,IC50,CYP3A,> 50 µM
same,IC50,UGT2B7,> 50 µM
same,IC50,BCRP [7],> 50 µM
same,IC50,OATP1B3,> 50 µM
same,IC50,[8],> 50 µM
same,IC50,MRP4,> 50 µM
same,Induction of CYP1A2,CYP1A2,did not induce
same,Induction of CYP2B6,CYP2B6,did not induce
same,IC50,[9],2.12 µM
same,Substrate of BCRP,BCRP [10],substrate
same,Substrate of P-gp,P-gp,substrate
same,Substrate of OATP1B1,OATP1B1,not a substrate
same,EC50,[11],0.5 nM to 2.1 nM and 0.00021 µg/mL to 0.00085 µg/mL
same,EC50,[12],0.00052 µM
same,Antagonism with tested anti-HIV agents,HIV,Neither dolutegravir nor lamivudine were antagonistic
same,AUC exposure multiple of human (50 mg once daily) with no increases in drug-related neoplasms,[13],17 times
